Reference: patent US5597803A, “Bradykinin peptides with modifications at the N terminus” (Hoechst Aktiengesellschaft, priority 1992, dated 1997)

How the values were obtained:
[1] = biological target: T1, isolated guinea pig pulmonary artery (Cavia porcellus, UniProt O70526); assay: bradykinin-antagonistic action on the isolated guinea pig pulmonary artery (inhibition of bradykinin-induced contraction); format: cell-based; details: contraction by 2×10^-7 mol/l bradykinin; peptides 5×10^-8 -1×10^-5 mol/l for 10 minutes; calculated from dose-effect plots; unit inferred
T1 sequence (O70526 1-372): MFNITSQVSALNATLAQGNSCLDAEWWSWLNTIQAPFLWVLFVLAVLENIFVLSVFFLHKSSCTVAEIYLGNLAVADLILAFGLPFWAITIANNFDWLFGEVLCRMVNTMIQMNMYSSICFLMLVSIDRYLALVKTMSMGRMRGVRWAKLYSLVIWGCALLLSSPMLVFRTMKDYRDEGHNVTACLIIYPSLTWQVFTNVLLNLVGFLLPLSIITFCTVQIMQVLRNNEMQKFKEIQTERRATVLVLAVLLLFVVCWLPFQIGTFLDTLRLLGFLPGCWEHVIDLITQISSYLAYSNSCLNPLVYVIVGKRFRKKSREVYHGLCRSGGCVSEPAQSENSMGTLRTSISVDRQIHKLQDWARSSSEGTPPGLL
Source text: The peptides according to the invention have, singly or in combination, a bradykinin-antagonistic action which can be tested in various models (see Handbook of Exp. Pharmacol. Vol. 25, Springer Verlag, 1970, pages 53-55), for example on the isolated rat uterus, on the guinea pig ileum or on the isolated guinea pig pulmonary artery.
(§1) To test the peptides according to the invention on the isolated pulmonary artery, guinea pigs (Dunkin Hartley) weighing 400-450 g are sacrificed by a blow to the back of the neck. The thorax is opened and the pulmonary artery is carefully dissected out. The surrounding tissue is cautiously removed and the pulmonary artery is cut open in a spiral at an angle of 45°. The strip of vessel 2.5 cm long and 3-4 mm wide is fixed in an organ bath which has a capacity of 10 ml and is filled with Ringer solution.
(§2) 95% O2 and 5% CO2 is bubbled through the solution, which is heated to 37° C. The pH is 7.4 and the preload on the strip of vessel is 1.0 g.
(§3) The isometric contraction changes are detected using a lever attachment and an HF modem (position sensor) from Hugo Sachs and are recorded on a potentiometric recorder (BEC, Goerz Metrawatt SE 460).
The experiment is started after equilibration for 1 hour. After the strips of vessel have reached their maximum sensitivity to 2×10^-7 mol/1 bradykinin--bradykinin leads to contraction of the strips of vessel--the peptides are left to act in doses of 5×10^-8 -1×10^-5 mol/l for 10 minutes each and, after renewed addition of bradykinin, the decrease in the effect of bradykinin is compared with the control.

[2] = test system: carrageenan-induced edema of the rat paw; assay: carrageenan-induced edema of the rat paw, systemic administration; format: in vivo; details: 15 min before carrageenan, male Sprague-Dawley rats, mean and standard deviation
Procedure: Antiinflammatory effect after systemic administration: carrageenan-induced edema of the rat paw
The test chosen for the acute systemic antiinflammatory effect is the carrageenan-induced edema of the rat paw by the method described by Winter C. A. et al., Proc. Soc. Exp. Biol. (N.Y.), 111, 544 (1962). Male Sprague-Dawley rats weighing about 170 g in groups of 5 animals receive the substances to be tested subcutaneously dissolved in distilled water (1 ml/kg bodyweight). 15 min later, after measurement of the initial volume of the paw, 0.1 ml of 0.5% strength carrageenan solution is injected under ether anesthesia into the left rear paw. The increase in volume of the swelling is measured 3 and 6 h later, Controls receive only the vehicle. The paw volume is reported in ml (mean and standard deviation).

[3] = biological target: T1, isolated guinea pig pulmonary artery; assay: duration of action (T50) on the isolated pulmonary artery after replacement of the peptide-containing buffer; format: cell-based; details: time until strips again reach maximum sensitivity to 2×10^-7 mol/l bradykinin after washout; measure of duration of action; found by calculation
Procedure: as §1, §2, §3
The experiment is started after equilibration for 1 hour. […]
For some selected compounds, the time until the strips of vessel have again reached their maximum sensitivity to 2×10^-7 mol/l bradykinin after replacement of the peptide-containing by a "simple" buffer was also determined in the experimental arrangement described above. […]

| IC50 [1] [nM] | T50 (pulmonary artery) [3] [min] | Substance | Increase in paw volume after 3 h ([2]; 0.1 mg/kg subcutaneously) [mL] | Increase in paw volume after 6 h ([2]; 0.1 mg/kg subcutaneously) [mL] | Increase in paw volume after 3 h ([2]; 1.0 mg/kg subcutaneously) [mL] | Increase in paw volume after 6 h ([2]; 1.0 mg/kg subcutaneously) [mL] |
| --- | --- | --- | --- | --- | --- | --- |
| 25 | – | Fmoc-(4-aminocyclohexylcarbonyl)-D-Arg-Arg-Pro-Hyp-Gly-Thi-Ser-D-Tic-Oic-Arg-OH [Example 15] | – | – | – | – |
| 8.5 | 253.3 | Fmoc-Aoc-D-Arg-Arg-Pro-Hyp-Gly-Thia-Ser-D-Tic-Oic-Arg-OH [Example 2] | 0.13 ± 0.04 | 0.29 ± 0.08 | 0.19 ± 0.06 | 0.27 ± 0.06 |
| 22 | – | Fmoc-D-Aoc-Arg -Arg-Pro-Hyp-Gly-Thi-Ser-D-Tic-Oic-Arg-OH [Example 7] | – | – | – | – |
